Remaining binding data for two compounds are collected here from publication PMC4770715, “LIM kinase inhibitors disrupt mitotic microtubule organization and impair tumor cell proliferation” (Oncotarget, 2015).

Molecules are shown by their SMILES.

Targets include TGFBR1 (Homo sapiens, UniProt P36897); PRKCQ (Homo sapiens, UniProt Q04759); EPHB3 (Homo sapiens, UniProt P54753); STK33 (Homo sapiens, UniProt Q9BYT3); KIT(V559D,V654A) (Homo sapiens, UniProt P10721, V559D/V654A); RET(M918T) (Homo sapiens, UniProt P07949, M918T); ERBB4 (Homo sapiens, UniProt Q15303); CDK9 (Homo sapiens, UniProt P50750); TBK1 (Homo sapiens, UniProt Q9UHD2); PLK2 (Homo sapiens, UniProt Q9NYY3); EPHA2 (Homo sapiens, UniProt P29317); NLK (Homo sapiens, UniProt Q9UBE8); BTK (Homo sapiens, UniProt Q06187); MKNK2 (Homo sapiens, UniProt Q9HBH9); EPHA6 (Homo sapiens, UniProt Q9UF33); DDR2 (Homo sapiens, UniProt Q16832); CAMK2G (Homo sapiens, UniProt Q13555); RIPK2 (Homo sapiens, UniProt O43353).

What all share (assay): biochemical
Set-up in all cases: KINOMEscan active-site competition binding, percent of control (100 = no competition)
Holding throughout (conditions): competition binding, percent control

Another assay addresses T1, AMPK-alpha1 (Homo sapiens, UniProt Q13131).
T1 construct: gene PRKAA1

A further assay deals with T2, ERK3 (Homo sapiens, UniProt Q16659).
T2 construct: gene MAPK6

A further assay addresses T3, OSR1 (Homo sapiens, UniProt O95747).
T3 construct: gene OXSR1

The next assay has as its target T4, PFTAIRE2 (Homo sapiens, UniProt Q96Q40).
T4 construct: gene CDK15

The next assay addresses T5, p38-delta (Homo sapiens, UniProt O15264).
T5 construct: gene MAPK13

T5 sequence (O15264 whole entry): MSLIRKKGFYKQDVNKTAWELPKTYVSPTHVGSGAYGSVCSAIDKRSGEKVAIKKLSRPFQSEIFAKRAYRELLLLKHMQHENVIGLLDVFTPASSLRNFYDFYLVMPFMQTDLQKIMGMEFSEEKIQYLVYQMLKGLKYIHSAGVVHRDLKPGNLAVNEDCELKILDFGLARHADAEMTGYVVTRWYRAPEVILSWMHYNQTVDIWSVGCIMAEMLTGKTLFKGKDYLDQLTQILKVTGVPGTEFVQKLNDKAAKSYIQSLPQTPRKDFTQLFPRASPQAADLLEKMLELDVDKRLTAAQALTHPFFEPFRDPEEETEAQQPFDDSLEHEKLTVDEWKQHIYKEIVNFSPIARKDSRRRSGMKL
Sequence of PRKCQ (Q04759 whole entry): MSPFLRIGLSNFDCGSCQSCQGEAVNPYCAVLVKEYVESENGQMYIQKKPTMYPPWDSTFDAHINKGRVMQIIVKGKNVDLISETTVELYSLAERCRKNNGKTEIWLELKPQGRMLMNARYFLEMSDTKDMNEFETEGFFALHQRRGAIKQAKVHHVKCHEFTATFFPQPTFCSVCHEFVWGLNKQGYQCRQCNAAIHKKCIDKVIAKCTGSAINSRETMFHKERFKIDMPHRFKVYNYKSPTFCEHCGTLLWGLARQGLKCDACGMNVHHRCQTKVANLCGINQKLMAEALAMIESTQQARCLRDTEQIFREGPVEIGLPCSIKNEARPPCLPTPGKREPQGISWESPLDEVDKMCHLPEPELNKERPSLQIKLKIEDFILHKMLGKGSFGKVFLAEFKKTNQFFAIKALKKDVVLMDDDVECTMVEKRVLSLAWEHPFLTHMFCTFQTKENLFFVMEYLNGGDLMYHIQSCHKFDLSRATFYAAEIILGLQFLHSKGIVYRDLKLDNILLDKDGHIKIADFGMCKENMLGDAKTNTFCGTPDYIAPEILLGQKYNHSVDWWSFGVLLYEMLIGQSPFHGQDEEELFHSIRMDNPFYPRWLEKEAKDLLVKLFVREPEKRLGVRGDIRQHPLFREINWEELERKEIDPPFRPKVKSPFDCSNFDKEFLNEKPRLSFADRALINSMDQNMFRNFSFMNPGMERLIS
Sequence of STK33 (Q9BYT3 whole entry): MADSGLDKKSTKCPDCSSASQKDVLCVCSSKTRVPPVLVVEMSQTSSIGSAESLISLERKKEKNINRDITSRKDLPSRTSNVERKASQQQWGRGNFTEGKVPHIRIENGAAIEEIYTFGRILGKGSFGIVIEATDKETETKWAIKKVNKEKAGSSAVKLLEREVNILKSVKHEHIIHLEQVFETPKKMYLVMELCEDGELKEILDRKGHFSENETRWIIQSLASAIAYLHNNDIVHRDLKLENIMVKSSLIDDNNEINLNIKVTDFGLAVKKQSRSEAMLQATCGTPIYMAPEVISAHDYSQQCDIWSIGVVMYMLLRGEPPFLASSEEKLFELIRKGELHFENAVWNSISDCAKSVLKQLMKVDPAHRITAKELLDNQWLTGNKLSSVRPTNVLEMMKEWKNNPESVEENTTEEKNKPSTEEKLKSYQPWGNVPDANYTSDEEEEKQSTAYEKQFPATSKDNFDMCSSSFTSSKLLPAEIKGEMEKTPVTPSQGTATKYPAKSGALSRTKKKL
Sequence of MKNK2 (Q9HBH9 whole entry): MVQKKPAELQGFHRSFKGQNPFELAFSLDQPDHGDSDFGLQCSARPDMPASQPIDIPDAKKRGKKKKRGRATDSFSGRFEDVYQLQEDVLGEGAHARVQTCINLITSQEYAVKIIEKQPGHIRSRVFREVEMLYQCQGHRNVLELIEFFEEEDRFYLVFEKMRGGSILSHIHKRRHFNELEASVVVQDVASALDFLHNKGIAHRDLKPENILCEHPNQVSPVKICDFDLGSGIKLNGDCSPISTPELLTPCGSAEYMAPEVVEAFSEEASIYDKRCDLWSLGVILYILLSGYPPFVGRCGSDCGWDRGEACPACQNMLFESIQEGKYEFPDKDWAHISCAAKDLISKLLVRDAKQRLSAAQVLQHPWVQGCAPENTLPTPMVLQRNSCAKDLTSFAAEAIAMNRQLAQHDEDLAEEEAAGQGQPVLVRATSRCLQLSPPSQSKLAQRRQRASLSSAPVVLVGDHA
Sequence of TGFBR1 (P36897 whole entry): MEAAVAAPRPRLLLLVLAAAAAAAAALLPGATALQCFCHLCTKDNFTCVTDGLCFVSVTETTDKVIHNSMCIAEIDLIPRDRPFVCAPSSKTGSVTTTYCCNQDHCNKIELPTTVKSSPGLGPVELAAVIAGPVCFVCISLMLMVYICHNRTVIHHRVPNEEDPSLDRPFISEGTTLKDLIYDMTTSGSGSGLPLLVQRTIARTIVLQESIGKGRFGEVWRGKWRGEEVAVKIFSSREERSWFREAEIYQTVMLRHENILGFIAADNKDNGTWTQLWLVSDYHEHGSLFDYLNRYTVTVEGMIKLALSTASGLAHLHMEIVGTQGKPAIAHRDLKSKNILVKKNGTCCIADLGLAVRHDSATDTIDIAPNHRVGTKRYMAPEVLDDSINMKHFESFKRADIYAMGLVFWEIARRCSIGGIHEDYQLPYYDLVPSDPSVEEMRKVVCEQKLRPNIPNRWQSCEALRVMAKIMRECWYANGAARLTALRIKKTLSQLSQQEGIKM
Sequence of RET(M918T) (P07949 whole entry M918T): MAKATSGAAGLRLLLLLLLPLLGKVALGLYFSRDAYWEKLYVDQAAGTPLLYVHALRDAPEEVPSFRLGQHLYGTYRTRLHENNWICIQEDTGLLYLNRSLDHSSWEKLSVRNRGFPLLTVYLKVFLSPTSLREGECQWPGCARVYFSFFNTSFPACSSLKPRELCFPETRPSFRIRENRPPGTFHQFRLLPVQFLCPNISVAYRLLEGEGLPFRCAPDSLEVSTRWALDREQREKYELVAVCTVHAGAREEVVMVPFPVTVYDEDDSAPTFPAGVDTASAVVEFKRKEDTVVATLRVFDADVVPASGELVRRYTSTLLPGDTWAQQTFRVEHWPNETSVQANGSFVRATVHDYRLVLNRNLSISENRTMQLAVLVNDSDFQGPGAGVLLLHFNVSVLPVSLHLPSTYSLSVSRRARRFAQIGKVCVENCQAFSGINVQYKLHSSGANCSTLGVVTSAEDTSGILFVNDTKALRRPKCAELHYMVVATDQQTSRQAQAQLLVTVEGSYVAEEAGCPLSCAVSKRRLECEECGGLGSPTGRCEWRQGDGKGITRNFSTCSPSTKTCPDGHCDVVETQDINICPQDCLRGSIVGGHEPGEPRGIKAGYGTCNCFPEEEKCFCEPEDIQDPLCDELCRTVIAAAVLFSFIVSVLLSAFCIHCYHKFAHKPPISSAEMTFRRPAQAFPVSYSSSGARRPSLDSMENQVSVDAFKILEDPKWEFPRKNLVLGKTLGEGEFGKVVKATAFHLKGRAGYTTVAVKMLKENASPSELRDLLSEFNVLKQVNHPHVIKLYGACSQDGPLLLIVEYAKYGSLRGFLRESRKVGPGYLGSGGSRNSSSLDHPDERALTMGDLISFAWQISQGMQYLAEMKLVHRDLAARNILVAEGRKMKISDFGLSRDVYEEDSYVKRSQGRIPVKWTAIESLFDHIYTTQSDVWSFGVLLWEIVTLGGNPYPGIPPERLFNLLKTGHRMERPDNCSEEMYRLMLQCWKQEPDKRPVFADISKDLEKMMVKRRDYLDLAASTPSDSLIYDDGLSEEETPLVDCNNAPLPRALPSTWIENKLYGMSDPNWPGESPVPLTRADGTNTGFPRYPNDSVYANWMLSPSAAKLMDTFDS
Sequence of NLK (Q9UBE8 whole entry): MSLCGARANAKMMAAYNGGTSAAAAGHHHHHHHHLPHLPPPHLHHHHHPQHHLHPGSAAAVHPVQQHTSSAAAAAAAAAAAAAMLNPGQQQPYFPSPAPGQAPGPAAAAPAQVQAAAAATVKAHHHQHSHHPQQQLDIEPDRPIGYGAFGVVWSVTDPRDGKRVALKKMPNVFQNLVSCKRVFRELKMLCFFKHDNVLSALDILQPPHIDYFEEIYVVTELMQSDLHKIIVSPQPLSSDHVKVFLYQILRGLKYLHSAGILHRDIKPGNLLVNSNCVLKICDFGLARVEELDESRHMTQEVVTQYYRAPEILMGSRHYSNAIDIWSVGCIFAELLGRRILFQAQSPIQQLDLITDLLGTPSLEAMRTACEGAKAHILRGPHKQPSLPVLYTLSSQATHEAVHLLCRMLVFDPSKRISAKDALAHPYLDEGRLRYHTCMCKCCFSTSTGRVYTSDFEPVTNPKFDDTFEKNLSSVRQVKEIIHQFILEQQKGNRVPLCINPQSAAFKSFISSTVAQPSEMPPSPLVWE
Sequence of BTK (Q06187 whole entry): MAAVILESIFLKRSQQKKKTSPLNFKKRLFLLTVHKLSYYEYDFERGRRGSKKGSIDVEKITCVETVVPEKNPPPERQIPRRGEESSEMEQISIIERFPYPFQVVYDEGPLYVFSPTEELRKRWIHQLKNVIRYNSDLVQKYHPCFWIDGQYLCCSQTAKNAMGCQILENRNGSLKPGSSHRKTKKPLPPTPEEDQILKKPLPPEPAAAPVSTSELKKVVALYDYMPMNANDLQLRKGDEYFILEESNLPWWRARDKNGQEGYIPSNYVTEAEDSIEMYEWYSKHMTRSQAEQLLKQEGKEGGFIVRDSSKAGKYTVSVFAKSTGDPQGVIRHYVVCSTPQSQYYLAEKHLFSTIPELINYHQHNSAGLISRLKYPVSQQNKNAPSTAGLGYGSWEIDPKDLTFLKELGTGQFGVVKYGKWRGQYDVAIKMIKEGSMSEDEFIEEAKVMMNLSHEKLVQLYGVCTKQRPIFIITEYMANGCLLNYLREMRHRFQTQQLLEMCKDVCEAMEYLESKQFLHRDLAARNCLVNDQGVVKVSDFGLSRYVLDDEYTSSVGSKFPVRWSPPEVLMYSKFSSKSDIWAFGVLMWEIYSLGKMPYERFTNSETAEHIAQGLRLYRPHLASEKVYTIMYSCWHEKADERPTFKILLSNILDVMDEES

Regarding `COc1ccc(-c2cnccc2-c2cnc(NC(=O)C(C)C)s2)c(C(F)(F)F)c1` [CRT0105446, N-{5-[3-(4-Methoxy-2-trifluoromethyl-phenyl)-pyridin-4-yl]-hiazol-2-yl}-isobutyramide], the remaining binding at 10 µM on TGFBR1 was 99%; on PRKCQ it was 74%; at AMPK-alpha1 it was 1.1%; on EPHB3, 83%; at STK33 it was 100%; at KIT(V559D,V654A) it was 100%. In addition, the remaining binding at 10 µM at ERK3 turned out to be 100%; on OSR1 it was 100%; on RET(M918T), 91%; on ERBB4, 100%; on CDK9, 28%; at TBK1, 82%. Besides, the remaining binding at 10 µM is 99% on PLK2; 100% at EPHA2; 18% on PFTAIRE2; 57% on NLK; 85% on BTK; 68% on MKNK2. For the same compound, the remaining binding at 10 µM at EPHA6 came to 86%; on DDR2, 0.4%; at CAMK2G, 80%; at p38-delta, 97%; at RIPK2 it was 80%.
With `Cc1ccc(-c2cnccc2-c2cnc(Nc3ccc(O)cc3)s2)c(Cl)c1` [CRT0105950, 4-{5-[3-(2-Chloro-4-methyl-phenyl)-pyridin-4-yl]-thiazol-2-ylamino}-phenol], the remaining binding at 10 µM at TGFBR1 was found to be 74%; on PRKCQ, 13%; on AMPK-alpha1, 2.1%; on EPHB3, 96%; on STK33 it was 100%; at KIT(V559D,V654A), 11%. The remaining binding at 10 µM on ERK3 was found to be 97%; on OSR1 it was 84%; on RET(M918T) it was 0.35%; on ERBB4, 94%; at CDK9, 65%; on TBK1, 52%. In addition, the remaining binding at 10 µM at PLK2 came out at 9%; on EPHA2 it was 70%; on PFTAIRE2 it was 18%; at NLK, 20%; at BTK it was 72%; on MKNK2, 1.8%. Besides, the remaining binding at 10 µM was 30% on EPHA6; 12% at DDR2; 49% at CAMK2G; 100% at p38-delta; 18% at RIPK2.
